Article PMC12305494, “Discovery of PXR Antagonist MI891 and PXR Degrader MI1013 and Their Roles in Hepatic Gene Regulation” (Journal of Medicinal Chemistry, 2025)

What was measured:
Test in all cases: Off-target kinase panel
Assay type in all cases: biochemical
DRAK1(h) = DRAK1(h) (Homo sapiens, UniProt Q9UEE5); details: MI891 @ 1 µM
Method: (§1) To evaluate the selectivity of MI891, an off-target profiling study was performed using a panel of 58 kinases.

JAK2(h) = target: T1, JAK2(h) (Homo sapiens, UniProt O60674); details: MI891 @ 1 µM
T1 construct: purchased Eurofins (Millipore) KinaseProfiler, inferred from the naming style
Method: as §1

IKKα(h) = IKKα(h) (Homo sapiens, UniProt O15111); details: MI891 @ 1 µM
Method: as §1

PRAK(h) = target: T2, PRAK(h) (Homo sapiens, UniProt Q8IW41); details: MI891 @ 1 µM
T2 construct: purchased Eurofins (Millipore) KinaseProfiler, inferred from the naming style
Method: as §1

SRPK1(h) = target: T3, SRPK1(h) (Homo sapiens, UniProt Q96SB4); details: MI891 @ 1 µM
T3 construct: purchased Eurofins (Millipore) KinaseProfiler, inferred from the naming style
Method: as §1

KDR(h) = target: T4, KDR(h) (Homo sapiens, UniProt P35968); details: MI891 @ 1 µM
T4 construct: purchased Eurofins (Millipore) KinaseProfiler, inferred from the naming style
Method: as §1

EGFR(h) = EGFR(h) (Homo sapiens, UniProt P00533); details: MI891 @ 1 µM
Method: as §1

SAPK2a(h) = target: T5, SAPK2a(h) (Homo sapiens, UniProt Q16539); details: MI891 @ 1 µM
T5 construct: purchased Eurofins (Millipore) KinaseProfiler, inferred from the naming style
Method: as §1

PKCα(h) = target: T6, PKCα(h) (Homo sapiens, UniProt P17252); details: MI891 @ 1 µM
T6 construct: purchased Eurofins (Millipore) KinaseProfiler, inferred from the naming style
Method: as §1

CDK1/cyclinB(h) = CDK1/cyclinB(h) (Homo sapiens, UniProt P06493); details: MI891 @ 1 µM
Method: as §1

PKCθ(h) = target: T7, PKCθ(h) (Homo sapiens, UniProt Q04759); details: MI891 @ 1 µM
T7 construct: purchased Eurofins (Millipore) KinaseProfiler, inferred from the naming style
Method: as §1

Fyn(h) = Fyn(h) (Homo sapiens, UniProt P06241); details: MI891 @ 1 µM
Method: as §1

Rsk1(h) = target: T8, Rsk1(h) (Homo sapiens, UniProt Q15418); details: MI891 @ 1 µM
T8 construct: purchased Eurofins (Millipore) KinaseProfiler, inferred from the naming style
Method: as §1

IGF-1R(h) = IGF-1R(h) (Homo sapiens, UniProt P08069); details: MI891 @ 1 µM
Method: as §1

Pim-1(h) = target: T9, Pim-1(h) (Homo sapiens, UniProt P11309)
T9 construct: purchased Eurofins (Millipore) KinaseProfiler, inferred from the naming style
Method: as §1

Lyn(h) = target: T10, Lyn(h) (Homo sapiens, UniProt P07948); details: MI891 @ 1 µM
T10 construct: purchased Eurofins (Millipore) KinaseProfiler, inferred from the naming style
Method: as §1

MAPKAP-K2(h) = target: T11, MAPKAP-K2(h) (Homo sapiens, UniProt P49137); details: MI891 @ 1 µM
T11 construct: purchased Eurofins (Millipore) KinaseProfiler, inferred from the naming style
Method: as §1

eEF-2K(h) = eEF-2K(h) (Homo sapiens, UniProt O00418); details: MI891 @ 1 µM
Method: as §1

CK2α2(h) = CK2α2(h) (Homo sapiens, UniProt P19784); details: MI891 @ 1 µM
Method: as §1

[1] = target: T12, PI3 Kinase (p110d/p85a)(h) (Homo sapiens, UniProt O00329); details: MI891 @ 1 µM
T12 construct: purchased Eurofins (Millipore) KinaseProfiler, inferred from the naming style
Method: as §1

IRAK4(h) = target: T13, IRAK4(h) (Homo sapiens, UniProt Q9NWZ3); details: MI891 @ 1 µM
T13 construct: purchased Eurofins (Millipore) KinaseProfiler, inferred from the naming style
Method: as §1

NEK2(h) = target: T14, NEK2(h) (Homo sapiens, UniProt P51955); details: MI891 @ 1 µM
T14 construct: purchased Eurofins (Millipore) KinaseProfiler, inferred from the naming style
Method: as §1

GSK3β(h) = GSK3β(h) (Homo sapiens, UniProt P49841); details: MI891 @ 1 µM
Method: as §1

PDGFRβ(h) = target: T15, PDGFRβ(h) (Homo sapiens, UniProt P09619); details: MI891 @ 1 µM
T15 construct: purchased Eurofins (Millipore) KinaseProfiler, inferred from the naming style
Method: as §1

PKG1α(h) = target: T16, PKG1α(h) (Homo sapiens, UniProt Q13976); details: MI891 @ 1 µM
T16 construct: purchased Eurofins (Millipore) KinaseProfiler, inferred from the naming style
Method: as §1

CaMKI(h) = CaMKI(h) (Homo sapiens, UniProt Q14012); details: MI891 @ 1 µM
Method: as §1

CDK9/cyclin T1(h) = CDK9/cyclin T1(h) (Homo sapiens, UniProt P50750); details: MI891 @ 1 µM
Method: as §1

ROCK-I(h) = target: T17, ROCK-I(h) (Homo sapiens, UniProt Q13464); details: MI891 @ 1 µM
T17 construct: purchased Eurofins (Millipore) KinaseProfiler, inferred from the naming style
Method: as §1

MST1(h) = target: T18, MST1(h) (Homo sapiens, UniProt Q13043); details: MI891 @ 1 µM
T18 construct: purchased Eurofins (Millipore) KinaseProfiler, inferred from the naming style
Method: as §1

CDK7/cyclinH/MAT1(h) = CDK7/cyclinH/MAT1(h) (Homo sapiens, UniProt P50613); details: MI891 @ 1 µM
Method: as §1

MEK1(h) = target: T19, MEK1(h) (Homo sapiens, UniProt Q02750); details: MI891 @ 1 µM
T19 construct: purchased Eurofins (Millipore) KinaseProfiler, inferred from the naming style
Method: as §1

PI3 Kinase (p120g)(h) = target: T20, PI3 Kinase (p120g)(h) (Homo sapiens, UniProt P48736); details: MI891 @ 1 µM
T20 construct: purchased Eurofins (Millipore) KinaseProfiler, inferred from the naming style
Method: as §1

CK1γ1(h) = CK1γ1(h) (Homo sapiens, UniProt Q9HCP0); details: MI891 @ 1 µM
Method: as §1

mTOR(h) = target: T21, mTOR(h) (Homo sapiens, UniProt P42345); details: MI891 @ 1 µM
T21 construct: purchased Eurofins (Millipore) KinaseProfiler, inferred from the naming style
Method: as §1

CDK2/cyclinA(h) = CDK2/cyclinA(h) (Homo sapiens, UniProt P24941); details: MI891 @ 1 µM
Method: as §1

EphB4(h) = EphB4(h) (Homo sapiens, UniProt P54760); details: MI891 @ 1 µM
Method: as §1

PKBα(h) = target: T22, PKBα(h) (Homo sapiens, UniProt P31749); details: MI891 @ 1 µM
T22 construct: purchased Eurofins (Millipore) KinaseProfiler, inferred from the naming style
Method: as §1

CDK6/cyclinD3(h) = CDK6/cyclinD3(h) (Homo sapiens, UniProt Q00534); details: MI891 @ 1 µM
Method: as §1

PAK2(h) = target: T23, PAK2(h) (Homo sapiens, UniProt Q13177); details: MI891 @ 1 µM
T23 construct: purchased Eurofins (Millipore) KinaseProfiler, inferred from the naming style
Method: as §1

AMPKα1(h) = AMPKα1(h) (Homo sapiens, UniProt Q13131); details: MI891 @ 1 µM
Method: as §1

ASK1(h) = ASK1(h) (Homo sapiens, UniProt Q99683); details: MI891 @ 1 µM
Method: as §1

T9 sequence (P11309 whole entry): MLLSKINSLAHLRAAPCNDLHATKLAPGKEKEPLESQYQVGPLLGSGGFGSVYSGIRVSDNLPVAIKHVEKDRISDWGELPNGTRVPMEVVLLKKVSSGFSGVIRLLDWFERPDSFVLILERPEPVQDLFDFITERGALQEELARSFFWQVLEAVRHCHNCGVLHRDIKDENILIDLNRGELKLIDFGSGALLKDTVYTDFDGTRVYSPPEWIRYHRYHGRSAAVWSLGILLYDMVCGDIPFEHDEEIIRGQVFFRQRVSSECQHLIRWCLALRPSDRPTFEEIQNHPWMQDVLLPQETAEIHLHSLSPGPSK
Chain of EphB4(h) (P54760 16-987): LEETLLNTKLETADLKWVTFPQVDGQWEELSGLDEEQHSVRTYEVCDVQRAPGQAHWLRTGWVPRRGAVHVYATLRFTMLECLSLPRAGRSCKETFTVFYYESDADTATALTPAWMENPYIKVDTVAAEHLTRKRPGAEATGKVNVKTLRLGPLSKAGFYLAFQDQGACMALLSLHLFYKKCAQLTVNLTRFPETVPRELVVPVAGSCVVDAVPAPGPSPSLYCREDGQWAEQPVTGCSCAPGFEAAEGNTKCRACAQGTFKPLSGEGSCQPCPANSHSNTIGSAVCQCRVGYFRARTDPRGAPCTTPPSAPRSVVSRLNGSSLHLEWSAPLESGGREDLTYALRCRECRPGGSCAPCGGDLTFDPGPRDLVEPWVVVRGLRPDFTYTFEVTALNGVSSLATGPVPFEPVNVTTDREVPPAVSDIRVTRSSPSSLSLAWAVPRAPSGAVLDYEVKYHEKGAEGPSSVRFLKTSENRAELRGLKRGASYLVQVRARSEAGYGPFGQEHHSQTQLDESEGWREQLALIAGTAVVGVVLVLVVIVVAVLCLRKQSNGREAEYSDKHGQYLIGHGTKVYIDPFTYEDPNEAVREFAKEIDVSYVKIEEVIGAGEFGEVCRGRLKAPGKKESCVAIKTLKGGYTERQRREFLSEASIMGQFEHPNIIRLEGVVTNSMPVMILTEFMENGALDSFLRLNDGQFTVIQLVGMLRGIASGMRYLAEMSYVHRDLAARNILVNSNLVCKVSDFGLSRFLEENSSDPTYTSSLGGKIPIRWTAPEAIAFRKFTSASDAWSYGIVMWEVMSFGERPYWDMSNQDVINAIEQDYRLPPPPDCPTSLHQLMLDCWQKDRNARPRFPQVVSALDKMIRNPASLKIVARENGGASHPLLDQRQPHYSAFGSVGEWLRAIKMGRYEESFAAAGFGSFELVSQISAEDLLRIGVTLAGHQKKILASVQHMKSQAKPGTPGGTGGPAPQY
T8 sequence (Q15418 whole entry): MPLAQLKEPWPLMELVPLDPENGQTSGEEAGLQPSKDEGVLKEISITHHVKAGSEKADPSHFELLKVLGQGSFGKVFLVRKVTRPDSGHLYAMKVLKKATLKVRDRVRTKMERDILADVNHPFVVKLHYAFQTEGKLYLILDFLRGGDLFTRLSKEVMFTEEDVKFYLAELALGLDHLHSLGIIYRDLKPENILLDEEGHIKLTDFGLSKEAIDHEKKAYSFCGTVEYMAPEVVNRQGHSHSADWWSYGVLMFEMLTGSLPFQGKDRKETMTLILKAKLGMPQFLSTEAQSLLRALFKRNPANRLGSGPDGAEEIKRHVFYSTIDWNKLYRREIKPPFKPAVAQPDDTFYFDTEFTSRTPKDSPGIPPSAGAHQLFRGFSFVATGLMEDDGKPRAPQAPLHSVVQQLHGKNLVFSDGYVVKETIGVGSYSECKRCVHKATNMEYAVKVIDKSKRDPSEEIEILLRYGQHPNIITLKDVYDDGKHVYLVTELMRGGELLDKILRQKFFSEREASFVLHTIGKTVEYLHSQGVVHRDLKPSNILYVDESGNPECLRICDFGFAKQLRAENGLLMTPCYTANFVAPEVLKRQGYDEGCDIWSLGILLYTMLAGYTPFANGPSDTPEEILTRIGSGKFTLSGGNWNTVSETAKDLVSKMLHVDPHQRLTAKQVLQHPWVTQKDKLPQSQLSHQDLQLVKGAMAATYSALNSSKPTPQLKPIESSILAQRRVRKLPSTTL
Chain of DRAK1(h) (Q9UEE5 whole entry): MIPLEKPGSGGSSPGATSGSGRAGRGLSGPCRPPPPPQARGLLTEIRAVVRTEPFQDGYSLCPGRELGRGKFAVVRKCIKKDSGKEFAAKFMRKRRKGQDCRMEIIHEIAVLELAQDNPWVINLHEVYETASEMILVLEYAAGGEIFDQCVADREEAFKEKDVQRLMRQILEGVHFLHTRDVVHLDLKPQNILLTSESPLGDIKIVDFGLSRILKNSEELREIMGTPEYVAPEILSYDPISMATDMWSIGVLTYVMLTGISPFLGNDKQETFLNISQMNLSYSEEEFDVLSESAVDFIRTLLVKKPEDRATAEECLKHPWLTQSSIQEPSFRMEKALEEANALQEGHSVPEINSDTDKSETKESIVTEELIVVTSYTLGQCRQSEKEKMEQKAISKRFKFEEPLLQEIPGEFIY
Chain of ASK1(h) (Q99683 whole entry): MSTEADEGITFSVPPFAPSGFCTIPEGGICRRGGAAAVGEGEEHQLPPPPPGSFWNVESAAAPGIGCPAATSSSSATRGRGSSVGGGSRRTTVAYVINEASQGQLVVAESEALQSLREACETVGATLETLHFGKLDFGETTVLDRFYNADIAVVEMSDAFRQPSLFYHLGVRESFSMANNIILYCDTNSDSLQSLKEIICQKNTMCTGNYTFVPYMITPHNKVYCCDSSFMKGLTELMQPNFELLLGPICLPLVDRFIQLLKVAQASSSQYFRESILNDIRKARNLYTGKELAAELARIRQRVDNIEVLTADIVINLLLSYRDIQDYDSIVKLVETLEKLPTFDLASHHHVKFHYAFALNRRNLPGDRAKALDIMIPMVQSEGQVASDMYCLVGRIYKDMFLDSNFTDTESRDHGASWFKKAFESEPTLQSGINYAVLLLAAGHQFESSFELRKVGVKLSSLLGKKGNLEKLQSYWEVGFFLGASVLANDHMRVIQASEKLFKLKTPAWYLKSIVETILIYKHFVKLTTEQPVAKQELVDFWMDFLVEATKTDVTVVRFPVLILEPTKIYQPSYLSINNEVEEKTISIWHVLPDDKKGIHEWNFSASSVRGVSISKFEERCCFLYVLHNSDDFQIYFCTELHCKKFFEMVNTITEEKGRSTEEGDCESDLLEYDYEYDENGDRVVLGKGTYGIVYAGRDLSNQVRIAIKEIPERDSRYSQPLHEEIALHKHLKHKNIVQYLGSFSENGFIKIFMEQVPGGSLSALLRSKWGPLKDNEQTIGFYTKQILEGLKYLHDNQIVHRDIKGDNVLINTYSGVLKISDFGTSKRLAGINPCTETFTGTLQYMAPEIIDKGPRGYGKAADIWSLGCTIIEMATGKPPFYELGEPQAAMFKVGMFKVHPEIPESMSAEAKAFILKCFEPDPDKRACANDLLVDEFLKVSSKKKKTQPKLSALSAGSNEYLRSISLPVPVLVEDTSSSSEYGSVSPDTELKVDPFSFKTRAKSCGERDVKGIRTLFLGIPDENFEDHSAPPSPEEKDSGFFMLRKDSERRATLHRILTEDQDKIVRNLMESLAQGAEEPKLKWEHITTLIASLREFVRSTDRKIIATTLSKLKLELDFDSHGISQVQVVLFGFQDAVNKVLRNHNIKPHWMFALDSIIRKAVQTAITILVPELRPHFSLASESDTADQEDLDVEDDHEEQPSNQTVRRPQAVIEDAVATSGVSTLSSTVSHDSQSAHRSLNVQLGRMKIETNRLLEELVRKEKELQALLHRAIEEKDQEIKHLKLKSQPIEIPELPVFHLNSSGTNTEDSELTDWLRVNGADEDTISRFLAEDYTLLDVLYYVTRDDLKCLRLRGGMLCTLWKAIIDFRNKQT
T18 sequence (Q13043 whole entry): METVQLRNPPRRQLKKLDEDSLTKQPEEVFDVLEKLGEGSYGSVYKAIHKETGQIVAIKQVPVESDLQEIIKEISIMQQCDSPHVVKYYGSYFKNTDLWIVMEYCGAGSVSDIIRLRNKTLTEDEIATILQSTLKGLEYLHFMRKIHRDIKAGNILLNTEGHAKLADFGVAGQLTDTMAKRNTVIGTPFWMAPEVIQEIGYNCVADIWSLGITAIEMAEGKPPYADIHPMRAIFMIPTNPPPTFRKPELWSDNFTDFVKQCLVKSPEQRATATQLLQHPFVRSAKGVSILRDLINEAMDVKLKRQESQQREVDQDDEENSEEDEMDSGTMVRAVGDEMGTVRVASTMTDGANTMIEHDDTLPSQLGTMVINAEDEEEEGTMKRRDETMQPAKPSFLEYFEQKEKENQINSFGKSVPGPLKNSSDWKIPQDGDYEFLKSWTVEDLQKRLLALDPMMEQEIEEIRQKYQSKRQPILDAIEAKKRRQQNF
T22 sequence (P31749 whole entry): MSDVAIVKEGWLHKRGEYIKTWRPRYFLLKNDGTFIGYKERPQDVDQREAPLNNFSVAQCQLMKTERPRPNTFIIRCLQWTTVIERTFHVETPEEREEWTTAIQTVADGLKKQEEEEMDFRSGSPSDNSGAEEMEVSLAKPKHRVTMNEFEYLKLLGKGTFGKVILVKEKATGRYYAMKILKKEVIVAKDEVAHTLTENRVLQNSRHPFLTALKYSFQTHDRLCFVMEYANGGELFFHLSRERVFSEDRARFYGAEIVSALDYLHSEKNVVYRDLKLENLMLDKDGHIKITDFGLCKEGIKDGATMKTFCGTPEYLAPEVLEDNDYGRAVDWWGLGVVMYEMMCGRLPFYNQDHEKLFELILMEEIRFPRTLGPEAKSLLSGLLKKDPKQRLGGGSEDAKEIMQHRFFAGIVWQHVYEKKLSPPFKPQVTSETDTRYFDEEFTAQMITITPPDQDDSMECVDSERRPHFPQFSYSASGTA

- activity at 1 µM (DRAK1(h)): 105%
- activity at 1 µM (JAK2(h)): 101%
- activity at 1 µM (IKKα(h)): 104%
- activity at 1 µM (PRAK(h)): 81%
- activity at 1 µM (SRPK1(h)): 98%
- activity at 1 µM (KDR(h)): 86%
- activity at 1 µM (EGFR(h)): 103%
- activity at 1 µM (SAPK2a(h)): 99%
- activity at 1 µM (PKCα(h)): 97%
- activity at 1 µM (CDK1/cyclinB(h)): 96%
- activity at 1 µM (PKCθ(h)): 90%
- activity at 1 µM (Fyn(h)): 81%
- activity at 1 µM (Rsk1(h)): 129%
- activity at 1 µM (IGF-1R(h)): 99%
- activity at 1 µM (Pim-1(h); MI891 @ 1 µM): 53%
- inhibition at 1 µM (Pim-1(h); at 1 μM): 53%
- activity at 1 µM (Lyn(h)): 88%
- activity at 1 µM (MAPKAP-K2(h)): 101%
- activity at 1 µM (eEF-2K(h)): 112%
- activity at 1 µM (CK2α2(h)): 109%
- activity at 1 µM [1]: 98%
- activity at 1 µM (IRAK4(h)): 112%
- activity at 1 µM (NEK2(h)): 103%
- activity at 1 µM (GSK3β(h)): 99%
- activity at 1 µM (PDGFRβ(h)): 86%
- activity at 1 µM (PKG1α(h)): 85%
- activity at 1 µM (CaMKI(h)): 95%
- activity at 1 µM (CDK9/cyclin T1(h)): 124%
- activity at 1 µM (ROCK-I(h)): 97%
- activity at 1 µM (MST1(h)): 94%
- activity at 1 µM (CDK7/cyclinH/MAT1(h)): 94%
- activity at 1 µM (MEK1(h)): 94%
- activity at 1 µM (PI3 Kinase (p120g)(h)): 102%
- activity at 1 µM (CK1γ1(h)): 100%
- activity at 1 µM (mTOR(h)): 96%
- activity at 1 µM (CDK2/cyclinA(h)): 106%
- activity at 1 µM (EphB4(h)): 97%
- activity at 1 µM (PKBα(h)): 100%
- activity at 1 µM (CDK6/cyclinD3(h)): 92%
- activity at 1 µM (PAK2(h)): 84%
- activity at 1 µM (AMPKα1(h)): 102%
- activity at 1 µM (ASK1(h)): 91%
Structure (SMILES): NC(=O)c1cc(Cn2cc(-c3c(-c4ccc(Cl)cc4)nc4c(F)cc(F)cn34)nn2)ccc1Cl [Compound 11, 2-Chloro-5-((4-(2-(4-chlorophenyl)-6,8-difluoroimidazo[1,2-a]pyridin-3-yl)-1H-1,2,3-triazol-1-yl)methyl)-benzamide]
